The record followed here is patent US10053468B2, “Heterocyclic compound” (TAKEDA PHARMACEUTICAL COMPANY LIMITED, priority 2013, dated 2018).

The subject of assay [1] is IL-17 production in human blood. Kind of assay: Effect on IL-17 production in human blood. It counts as cell-based. The following applies: 72 h, 10 μM test compound, IL-23 and Dynabeads stimulation, 3 days, read-out: Percent Inhibition at 10 μM (IL-17 production). Here is the method:
Effect on IL-17 Production in Human Blood
The inhibitory effect of the test compound on IL-17 production in human blood was evaluated as follows. First, 150 μL of peripheral blood collected from healthy individuals using heparinized vacuum blood collection tubes was dispensed into each well of a 96-well plate (Corning), and 45 μL of RPMI 1640 medium (Gibco) containing 10% fetal bovine serum (FBS, Hyclone) and 30 μL of the test compound diluted with the medium was added to each well. The plate was then cultured for 30 min at 37° C. Cells were subsequently stimulated by adding 30 μL of 100 ng/mL human IL-23 (R&D) and 45 μL of Dynabeads Human (Invitrogen) to each well and culturing the plate for 3 days at 37° C. In wells without stimulation, 75 μL of RPMI 1640 medium containing 10% FBS was added instead of the IL-23 and Dynabeads solution. After culturing for 3 days, the culture supernatant was collected, and the amount of IL-17 in the supernatant was measured using an IL-17 ELISA kit (R&D).
The results of the above-described measurements (percent inhibition of IL-17 production with 10 μM of the test compound) are shown in Table 4.

The subject of a further assay is IL-17A gene expression. Kind of assay: Effect on IL-23-induced cytokine expression in mice. The following applies: Mus musculus, 30 min before and 8 hr after IL-23, versus the negative control group, read-out: Percent inhibition of IL-17A gene expression; for inhibition in vivo at 10 mg/kg: dose 10 mg/kg oral. It counts as in vivo, Balb/c mice. As for the experimental part:
Effect on IL-23-induced Cytokine Expression in Mice
A mouse IL-23 solution (500 ng/10 μL, prepared by Takeda Pharmaceutical Company Limited) or PBS (10 μL, negative control group) was administered intradermally in the ear of Balb/c mice (Charles River Japan, male, 7 weeks old). Twenty-four hr after administration, the ear was resected under isoflurane anesthesia. The test compound was suspended in 0.5% methylcellulose and administered orally 30 min before and 8 hr after IL-23 administration.
RNA extraction from the ear tissue and quantitative PCR were performed as follows. Specifically, ear tissue 5 mm in diameter was punched from an area of the resected ear centering on the IL-23 injection site, and the tissue was immersed in RNAlater (QIAGEN) for at least 18 hr. The RNAlater-treated ear tissue was homogenized in 350 μL of RLT buffer (RNeasy mini kit, QIAGEN) and treated (55° C., 10 min) with Proteinase K (QIAGEN). Total RNA was then extracted according to the RNeasy mini kit protocol. The RNA thus obtained was then reverse transcribed into cDNA using the High-Capacity RNA-to-cDNA kit (Applied Biosystems), and the amount of each cytokine expressions was measured by real-time PCR (Viia7™, Applied Biosystems). The PCR buffer used was TaqMan Fast Advanced Master Mix (Applied Biosystems), and TaqMan Gene Expression Assays (Applied Biosystems) Mm00439618 ml (IL-17A) and 4352341E (β-actin) were used for cytokine gene detection. The IL-17A gene expression level was normalized to the R-actin gene expression level, and the percent inhibition of IL-17A gene expression with the test compound was then calculated.
The results obtained with the above-described method (percent inhibition of IL-17A gene expression with oral administration of the test compound) are shown in Table 5.

The subject of assay [2] is mouse model of IL-23-induced psoriasis. The experiment in a line: Effect in a mouse model of IL-23-induced psoriasis. It counts as in vivo, Balb/c mice. The following applies: dose 30 mg/kg oral twice daily; versus the negative control group. Here is the method:
Effect in a Mouse Model of IL-23-induced Psoriasis
Mouse IL-23 (500 ng/15 μL, R&D) or PBS (15 μL, negative control group) was administered intradermally in the ear of Balb/c mice (Charles River Japan, male, 7 weeks old) 5 times every other days. Seven hr after IL-23 administration at 8 days after the initial administration (final administration), the mice were anesthetized with isoflurane, and ear thickness was measured with calipers. After the ear thickness was measured, the ear was resected, tissue 8 mm in diameter was punched from an area centering on the IL-23 injection site, and the tissue was weighed. The punched ear tissue was cut in half, and one half was immersion-fixed in 10% neutral buffer formalin solution for use in histopathological evaluation. The other half was immersed in RNAlater (QIAGEN) for at least 18 hr for use in an evaluation of the IL-17A mRNA expression level. The test compound was suspended in 0.5% methylcellulose and administered orally twice daily on consecutive days from 30 min before the initial IL-23 administration to 30 min before the final IL-23 administration.
The change in ear thickness in this model was evaluated by calculating the difference in measured thickness between before IL-23 administration and 7 hr after the final IL-23 administration. In addition, the formalin-fixed tissue was embedded and sectioned, then stained with hematoxylin-eosin. The degree of acanthosis was then evaluated qualitatively by microscopy (classified with a score of 0 to 4). RNA extraction from the ear tissue and quantitative PCR were performed as follows. […] The RNA thus obtained was reverse transcribed into cDNA using the High-Capacity RNA-to-cDNA kit (Applied Biosystems), and the expression of each gene was measured by real-time PCR (Viia7™, Applied Biosystems). […] The IL-17A gene expression level was normalized to the R-actin gene expression level, and the percent inhibition of IL-17A gene expression with the test compound was then calculated. […]

Assay [3] has as its target T1, RORγt (Homo sapiens, UniProt P51449).
T1 sequence (P51449 1-497 isoform P51449-2): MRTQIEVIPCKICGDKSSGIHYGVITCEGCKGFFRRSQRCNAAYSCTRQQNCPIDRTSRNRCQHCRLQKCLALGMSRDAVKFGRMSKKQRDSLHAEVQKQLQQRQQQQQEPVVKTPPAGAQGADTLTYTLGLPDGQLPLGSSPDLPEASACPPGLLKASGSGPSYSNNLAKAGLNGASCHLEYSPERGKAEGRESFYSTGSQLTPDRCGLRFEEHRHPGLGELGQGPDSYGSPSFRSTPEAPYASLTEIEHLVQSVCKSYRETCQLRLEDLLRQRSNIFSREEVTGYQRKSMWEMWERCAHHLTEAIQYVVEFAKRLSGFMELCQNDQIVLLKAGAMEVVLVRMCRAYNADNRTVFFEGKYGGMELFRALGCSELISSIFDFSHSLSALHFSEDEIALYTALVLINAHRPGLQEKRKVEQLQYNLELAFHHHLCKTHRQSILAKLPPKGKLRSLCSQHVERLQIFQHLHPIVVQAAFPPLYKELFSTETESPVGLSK
Kind of assay: RORγt binding test using fluorescent-labeled cholesterol (TR-FRET). Conditions: read-out: Binding inhibitory rate of fluorescent-labeled cholesterol to RORγt at test compound 1 μM (%). Put shortly:
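TR-FRET displacement with His-tagged RORγt, BODIPY-cholesterol and Tb-anti-His antibody in Tris-HCl pH 7.5, 100 mM NaCl, 1 mM DTT, 0.1% BSA. Compound, RORγt and labelled cholesterol were incubated 20 min at RT, then antibody was added for another 20 min.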
On the technique in general: TR-FRET usually uses a lanthanide donor and a delayed reading to cut background.

Assay [4] deals with T1, RORγt. Kind of assay: RORγt binding test using fluorescent-labeled synthetic ligand (TR-FRET). The following applies: read-out: Binding inhibitory rate of fluorescent-labeled synthetic ligand to RORγt at test compound 1 μM (%). In short, it runs like this: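 His-tagged RORγt (diluted to 240 nM) with compound, then fluorescent synthetic ligand (diluted to 12 μM), 20 min at room temperature, followed by Tb anti-His antibody (diluted to 8 nM), 20 min.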

The target in assay [5] is T1, RORγt. Kind of assay: Cofactor recruitment test (Alpha Screen, biotinylated SRC-1 peptide). The following applies: read-out: Signal value inhibitory rate at test compound 1 μM (%). The format is biochemical. Here is the method: Cofactor Recruitment Test
Cofactor recruitment test was performed by Alpha Screen (Histidine Detection Kit, PerkinElmer) method. First, a test compound was diluted with an assay buffer (50 mM Tris-HCl (pH 7.5), 50 mM KCl, 1 mM DTT, 0.1% BSA) and added to a 384 well plate by 5 μL. […] The mixture was stood in a dark place for 1 hr, and the signal value was measured by Envision (PerkinElmer).

In assay [6] the target is T1, RORγt. The experiment in a line: Jurkat reporter test (human IL-17 ROR response element luciferase, RORγt vector). It counts as cell-based. The following applies: Jurkat, read-out: Luminescence level inhibitory rate at test compound 3 μM (%). Put shortly: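 Jurkat cells were electroporated (1350 V, 10 ms, 3 pulses) with reporter constructs, then cultured overnight with compound in RPMI containing 10% lipid-reduced FCS, 10 mM HEPES pH 7.5 and 5 μM lovastatin. Luciferase was quantified by Bright-Glo luminescence after 10 min at room temperature.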

On to `COc1ccc2c(n1)CCN(C(=O)CCCC(=O)O)[C@H]2C(=O)Nc1cc(F)c2c(c1)CCC2(C)C` [Example 118, 5-((5R)-5-((7-fluoro-1,1-dimethyl-2,3-dihydro-1H-inden-5-yl)carbamoyl)-2-methoxy-7,8-dihydro-1,6-naphthyridin-6(5H)-yl)-5-oxopentanoic acid], for which the inhibition at 10 µM in assay [1] came to 88%. Besides, in the assay with IL-17A gene expression, the inhibition in vivo at 10 mg/kg stood at 87%. Besides, in assay [2], the “Percent Inhibition of Acanthosis Score” value was determined as 80%, the “Percent Inhibition of Ear Thickness” value amounted to 61% and the “Percent Inhibition of IL-17A Expression” value is listed as 111%.

As for `COc1ccc2c(n1)CCN(C(=O)CCCC(=O)O)[C@H]2C(=O)Nc1ccc([Si](C)(C)C)c(F)c1` [Example 140, 5-((5R)-5-((3-fluoro-4-(trimethylsilyl)phenyl)carbamoyl)-2-methoxy-7,8-dihydro-1,6-naphthyridin-6(5H)-yl)-5-oxopentanoic acid], the inhibition at 1 µM was found to be 100% on RORγt [3], 101% on RORγt [4] and 95% on RORγt [5]. Further, at RORγt [6], the inhibition at 3 µM is 102%. The inhibition at 10 µM in assay [1] came to 91%. In addition, the inhibition in vivo at 30 mg/kg in the assay on IL-17A gene expression (dose 30 mg/kg oral) was 90%.

As for `C[Si](C)(C)c1c(F)cc(NC(=O)[C@H]2c3ccc4c(c3CCN2C(=O)N2CC(CC(=O)O)C2)OCO4)cc1F` [Example 272, (1-(((6R)-6-((3,5-difluoro-4-(trimethylsilyl)phenyl)carbamoyl)-8,9-dihydro[1,3]dioxolo[4,5-f]isoquinolin-7(6H)-yl)carbonyl)azetidin-3-yl)acetic acid], the inhibition at 1 µM at RORγt [4] amounted to 102%; on RORγt [5], 101%. The inhibition at 3 µM at RORγt [6] was determined as 100%. For the same molecule, in assay [1], the inhibition at 10 µM amounted to 93%. For the same molecule, the inhibition in vivo at 10 mg/kg in the assay with IL-17A gene expression was determined as 86%.
